The values below come from patent US11254666B2, “Compound as GLS1 inhibitor” (MEDSHINE DISCOVERY INC., priority 2017, dated 2022).

A short description of data set [1]: Evaluation of compounds pharmacokinetics in mice. Conditions: mouse, plasma, female C57BL/6 mice. It is filed as in vivo. As for the experimental part:
Experimental Example 2: Evaluation of Compounds Pharmacokinetics
Experimental purpose: To test the pharmacokinetics of compounds in mice
C57BL/6 mice (female, 7-9 weeks old, Shanghai SLAC)
Experimental procedure: C57BL/6 mice (C57BL/6) were administered a clear solution obtained by dissolving test compounds via tail vein injection and intragastric administration (overnight fast, 7-9 weeks old). After administration of the test compounds, the intravenous group was at 0.0833, 0.25, 0.5, 1, 2, 4, 6, 8 and 24 h, and the gavage group was at 0.0833, 0.25, 0.5, 1, 2, 4, 6, 8 and 24, blood was collected from the mandibular vein and centrifuged to obtain plasma. LC-MS/MS method was used to determine blood drug concentration, and WinNonlin™ Version 6.3 pharmacokinetic software was used to calculate the relevant pharmacokinetic parameters by non-compartment model linear logarithmic trapezoid method.

The next data set has as its target T1, GLS1 (Homo sapiens, UniProt O94925).
T1 sequence (O94925 55-669): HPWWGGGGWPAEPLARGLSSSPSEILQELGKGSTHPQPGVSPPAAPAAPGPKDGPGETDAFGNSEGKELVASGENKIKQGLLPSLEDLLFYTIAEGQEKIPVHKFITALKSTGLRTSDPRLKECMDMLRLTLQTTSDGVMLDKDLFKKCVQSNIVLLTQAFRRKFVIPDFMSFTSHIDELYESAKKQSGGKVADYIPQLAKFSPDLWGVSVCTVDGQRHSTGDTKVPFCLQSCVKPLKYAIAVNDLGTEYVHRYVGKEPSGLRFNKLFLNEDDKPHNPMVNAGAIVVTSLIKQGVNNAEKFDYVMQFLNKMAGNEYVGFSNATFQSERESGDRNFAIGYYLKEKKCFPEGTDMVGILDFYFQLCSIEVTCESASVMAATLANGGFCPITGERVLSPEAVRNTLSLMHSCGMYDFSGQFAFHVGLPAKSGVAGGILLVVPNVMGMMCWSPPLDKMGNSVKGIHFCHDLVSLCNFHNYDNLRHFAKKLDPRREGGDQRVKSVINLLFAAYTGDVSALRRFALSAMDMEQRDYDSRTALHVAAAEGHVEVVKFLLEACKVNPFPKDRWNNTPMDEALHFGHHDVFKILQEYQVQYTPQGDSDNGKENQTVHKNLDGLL
The data set can be described thus: Activity test of compounds in GLS1 coupling reaction system. In kind it is biochemical. Conditions: 2 nM GLS1, 4.5 mM L-glutamine, 1 hour pre-incubation at 23° C. The method, then:
Experimental Example 1: Activity Test of Compounds in GLS1 Coupling Reaction System
Preparation of Reaction Reagents: Relevant reagents should be prepared on the day of the experiment: Preparation of 1× assay buffer The final concentration of each component in the final experimental buffer was: 50 mM Tris-HCl pH 8.0, 0.25 mM EDTA, 150 mM K2HPO4, 0.1 mg/mL BSA, 1 mM DTT, 0.01% Triton X-100 Preparation of 2× experimental component solutions: The reagents were taken out and placed on ice to melt naturally for later use; 1× assay buffer was used to prepare “solution A” (solution A contains: L-glutamine, NAD+(nicotinamide adenine dinucleotide) and GLDH (glutamic acid dehydrogenase)). The final concentrations of each component in the final experimental reaction systemwere 4.5 mM L-glutamine, 2 mM NAD+ 4 U/mL GLDH. 1× assay buffer was used to prepare “solution B” - - - 2× enzyme solution (solution B contains GLS1 enzyme). The final concentration of GLS1 in the final experimental reaction system was 2 nM. Experimental Steps: The experiment plates are prepared by Labcyte ECHO before the experiment, which contain the compounds gradient concentrations and the corresponding DMSO solution: The experimental plates were taken out, and 20 μL of solution B (enzyme GLS1 solution) was added to columns 2 to 23 of the experimental plate, then 20 μL assay buffer was added to columns 1 and 24 as Min control in the experimental system. Then the experimental plates were centrifuged at 1000 rpm for 30 seconds; and sealed the membrane, and the plates were incubated at 23° C. for 1 hour. After the incubation of 1 hour, 20 μL of solution A was added to columns 1 to 24 of the experimental plates (ie, Samples were added to the whole plate). The experimental plates were centrifuged at 1000 rpm for 30 seconds. The experimental plates were placed on the SpectraMax 340PC, and the plates were continuously read for 20 minutes in dynamic mode (the reading interval was set to 1 minute).

Molecules are shown by their SMILES.

Compound `CO[C@H](C(=O)Nc1nnc(NC2CCN(c3cccnn3)CC2)s1)c1cc(OC(F)(F)F)ccc1F` [Example 17] yielded a bioavailability in data set [1] (po, intragastric vs tail vein) of 91.3%. In data set [1] (po, tail vein injection and intragastric administration, route and dose not given, read-out: T1/2 (half-life) (converted)), the half-life was 2.52 h. Besides, the AUC(0-inf) in data set [1] (route and dose not given) turned out to be 26.1 µM·h. Also, the Cmax in data set [1] (route and dose not given, read-out: Cmax (maximum concentration)) amounted to 11.6 µM. Moreover, the IC50 at GLS1 was < 0.2 µM.
On GLS1, `O=C(Cc1cc(OC(F)(F)F)ccc1F)Nc1nnc(NC2CCN(c3cccnn3)CC2)s1` [Example 9] showed an IC50 of 0.2 to 1 µM.
The same measure, in the same setting: the figure for `O=C(Cc1cc(Cl)ccc1F)Nc1nnc(NC2CCN(c3cccnn3)CC2)s1` [Example 8] is 0.2 to 1 µM; for `CO[C@H](C(=O)Nc1nnc(NC2CCN(c3cccnn3)CC2)s1)c1cccnc1` [Example 16] it is 0.2 to 1 µM; for `O=C(Cc1cc(Cl)ccc1Cl)Nc1nnc(NC2CCN(c3cccnn3)CC2)s1` [Example 7] it is 0.2 to 1 µM.
The same measure, in the same setting: for `O=C(Cc1cccnc1)Nc1nnc(NC2CCN(c3cccnn3)CC2)s1` [Example 5] the value was 0.2 to 1 µM.
